Source: patent US7759331B2, “Pyridine-containing macroheterococylic compounds as kinase inhibitors” (Janssen Pharmaceutica NV, priority 2006, dated 2010)

Key:
Experiment in all cases: Protein kinase selectivity panel
Conditions in all cases: 1.0 μM compound, 10 μM ATP
[1] = test system: AMPK(r); type: biochemical, rat
Description: (§1) Protein kinase selectivity assays were performed as described in the scientific literature (Davies, S. P., et al., Biochem. J. 2000, 351, 95-105). Briefly, protein kinases were assayed for their ability to phosphorylate the appropriate peptide/protein substrates in the presence of 1.0 μM compound. Assays were done using 10 μM ATP and were linear with respect to time. The protein kinase selectivity assays were performed by Upstate Cell Signaling Solutions using Upstate's KinaseProfiler™ Selectivity Screening Service.

[2] = test system: CaMKII(r); type: biochemical, rat
Description: as §1

[3] = biological target: Abl(h) (Homo sapiens, UniProt P00519); type: biochemical
Description: as §1

[4] = biological target: T1, Flt3(h) (Homo sapiens, UniProt P36888); type: biochemical
T1 sequence (P36888 27-993): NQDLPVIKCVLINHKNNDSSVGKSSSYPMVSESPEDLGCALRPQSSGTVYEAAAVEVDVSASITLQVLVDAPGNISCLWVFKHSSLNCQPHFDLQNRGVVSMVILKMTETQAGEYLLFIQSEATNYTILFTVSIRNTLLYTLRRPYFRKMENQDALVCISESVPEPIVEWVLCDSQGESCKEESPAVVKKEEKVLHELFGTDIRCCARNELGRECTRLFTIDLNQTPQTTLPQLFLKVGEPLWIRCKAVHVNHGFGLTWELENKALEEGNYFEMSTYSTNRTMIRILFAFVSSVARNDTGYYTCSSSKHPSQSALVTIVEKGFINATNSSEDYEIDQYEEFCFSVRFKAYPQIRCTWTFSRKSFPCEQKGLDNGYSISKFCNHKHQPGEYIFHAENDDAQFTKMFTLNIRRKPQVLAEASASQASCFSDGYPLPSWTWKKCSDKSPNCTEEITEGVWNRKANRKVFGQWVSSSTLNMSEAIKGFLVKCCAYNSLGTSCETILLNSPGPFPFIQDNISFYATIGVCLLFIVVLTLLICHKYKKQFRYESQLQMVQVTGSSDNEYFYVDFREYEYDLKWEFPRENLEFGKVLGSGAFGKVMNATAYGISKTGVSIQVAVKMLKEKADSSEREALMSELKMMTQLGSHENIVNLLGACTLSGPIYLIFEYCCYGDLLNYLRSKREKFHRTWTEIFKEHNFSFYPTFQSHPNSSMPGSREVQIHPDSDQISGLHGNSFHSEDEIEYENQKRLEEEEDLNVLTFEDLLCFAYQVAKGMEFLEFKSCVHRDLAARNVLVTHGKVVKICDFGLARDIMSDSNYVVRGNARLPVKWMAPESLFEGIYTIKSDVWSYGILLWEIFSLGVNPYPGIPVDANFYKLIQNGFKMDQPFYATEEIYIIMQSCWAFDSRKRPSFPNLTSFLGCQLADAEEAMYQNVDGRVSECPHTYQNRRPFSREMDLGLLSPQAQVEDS
Description: as §1

[5] = biological target: MAPKAP-K2(h) (Homo sapiens, UniProt P49137); type: biochemical
Chain of MAPKAP-K2(h) (P49137 whole entry): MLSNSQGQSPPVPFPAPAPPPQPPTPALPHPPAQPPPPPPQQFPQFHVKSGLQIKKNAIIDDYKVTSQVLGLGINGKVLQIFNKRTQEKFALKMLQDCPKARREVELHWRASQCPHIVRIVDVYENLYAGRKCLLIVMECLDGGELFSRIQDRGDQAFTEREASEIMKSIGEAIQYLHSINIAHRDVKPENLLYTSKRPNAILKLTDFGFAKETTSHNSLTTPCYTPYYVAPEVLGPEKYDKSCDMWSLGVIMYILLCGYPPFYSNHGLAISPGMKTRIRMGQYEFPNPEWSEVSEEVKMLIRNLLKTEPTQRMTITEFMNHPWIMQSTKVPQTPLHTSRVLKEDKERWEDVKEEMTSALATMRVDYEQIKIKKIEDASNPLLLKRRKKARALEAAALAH
Description: as §1

[6] = biological target: T2, PKCε(h) (Homo sapiens, UniProt Q02156); type: biochemical
T2 sequence (Q02156 1-737): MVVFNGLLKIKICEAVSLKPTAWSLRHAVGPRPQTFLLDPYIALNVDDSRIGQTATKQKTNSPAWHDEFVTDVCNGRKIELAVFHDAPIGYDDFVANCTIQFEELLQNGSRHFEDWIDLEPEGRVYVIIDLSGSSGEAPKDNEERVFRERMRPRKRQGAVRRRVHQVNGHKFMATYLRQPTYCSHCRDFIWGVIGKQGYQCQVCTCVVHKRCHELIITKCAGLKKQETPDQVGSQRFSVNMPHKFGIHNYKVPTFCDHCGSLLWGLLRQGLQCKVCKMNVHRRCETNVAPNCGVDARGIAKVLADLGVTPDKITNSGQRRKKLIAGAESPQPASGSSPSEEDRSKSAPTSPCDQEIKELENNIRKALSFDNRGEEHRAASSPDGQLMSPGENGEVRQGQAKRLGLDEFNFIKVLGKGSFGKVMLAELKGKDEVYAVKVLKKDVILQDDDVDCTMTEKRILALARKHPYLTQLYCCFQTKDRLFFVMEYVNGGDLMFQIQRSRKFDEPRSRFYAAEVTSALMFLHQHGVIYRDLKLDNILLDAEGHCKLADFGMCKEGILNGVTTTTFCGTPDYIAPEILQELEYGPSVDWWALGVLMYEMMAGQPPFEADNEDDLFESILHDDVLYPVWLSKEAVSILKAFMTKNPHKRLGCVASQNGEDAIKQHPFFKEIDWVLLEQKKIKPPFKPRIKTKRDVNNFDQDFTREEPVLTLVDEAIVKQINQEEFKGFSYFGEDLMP
Description: as §1

[7] = biological target: T3, PKCζ(h) (Homo sapiens, UniProt Q05513); type: biochemical
T3 sequence (Q05513 1-592): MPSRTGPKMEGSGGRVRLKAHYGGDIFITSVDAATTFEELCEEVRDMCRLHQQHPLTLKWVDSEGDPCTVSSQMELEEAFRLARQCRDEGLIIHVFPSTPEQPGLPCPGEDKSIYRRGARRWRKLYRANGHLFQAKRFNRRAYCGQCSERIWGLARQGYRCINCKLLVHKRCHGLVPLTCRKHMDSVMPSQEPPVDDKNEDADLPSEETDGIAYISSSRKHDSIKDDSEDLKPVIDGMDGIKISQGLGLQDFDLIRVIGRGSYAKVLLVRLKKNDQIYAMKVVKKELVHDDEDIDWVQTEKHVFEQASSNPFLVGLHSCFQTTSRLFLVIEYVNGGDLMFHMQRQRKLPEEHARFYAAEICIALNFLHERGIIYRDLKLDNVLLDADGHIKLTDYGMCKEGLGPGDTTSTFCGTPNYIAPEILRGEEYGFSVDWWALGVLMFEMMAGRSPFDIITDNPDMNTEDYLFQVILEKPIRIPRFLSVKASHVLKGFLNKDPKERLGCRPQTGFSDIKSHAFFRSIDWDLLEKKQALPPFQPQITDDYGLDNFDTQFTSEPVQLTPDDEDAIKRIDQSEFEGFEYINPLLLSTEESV
Description: as §1

[8] = biological target: PKCη(h) (Homo sapiens, UniProt P24723); type: biochemical
Chain of PKCη(h) (P24723 whole entry): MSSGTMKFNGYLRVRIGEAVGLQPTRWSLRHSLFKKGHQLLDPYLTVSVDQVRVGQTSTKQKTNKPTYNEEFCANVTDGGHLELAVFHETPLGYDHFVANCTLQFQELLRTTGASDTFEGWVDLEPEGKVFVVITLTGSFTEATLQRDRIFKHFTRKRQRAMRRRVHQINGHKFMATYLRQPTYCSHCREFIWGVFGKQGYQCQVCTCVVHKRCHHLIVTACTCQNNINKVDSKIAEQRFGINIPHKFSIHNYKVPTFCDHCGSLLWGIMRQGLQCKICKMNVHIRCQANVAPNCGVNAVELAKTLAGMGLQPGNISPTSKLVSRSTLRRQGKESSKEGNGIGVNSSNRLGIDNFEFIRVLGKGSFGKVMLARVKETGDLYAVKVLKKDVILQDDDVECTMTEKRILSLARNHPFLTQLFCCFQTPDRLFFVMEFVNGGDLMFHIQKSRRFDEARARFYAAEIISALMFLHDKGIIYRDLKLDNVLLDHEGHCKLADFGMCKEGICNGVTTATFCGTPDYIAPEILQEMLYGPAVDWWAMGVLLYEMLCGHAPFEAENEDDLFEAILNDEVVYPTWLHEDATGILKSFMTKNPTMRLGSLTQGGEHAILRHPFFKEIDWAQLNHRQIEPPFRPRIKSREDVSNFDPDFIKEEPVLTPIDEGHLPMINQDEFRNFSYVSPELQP
Description: as §1

[9] = biological target: Ros(h) (Homo sapiens, UniProt P08922); type: biochemical
Chain of Ros(h) (P08922 28-2347): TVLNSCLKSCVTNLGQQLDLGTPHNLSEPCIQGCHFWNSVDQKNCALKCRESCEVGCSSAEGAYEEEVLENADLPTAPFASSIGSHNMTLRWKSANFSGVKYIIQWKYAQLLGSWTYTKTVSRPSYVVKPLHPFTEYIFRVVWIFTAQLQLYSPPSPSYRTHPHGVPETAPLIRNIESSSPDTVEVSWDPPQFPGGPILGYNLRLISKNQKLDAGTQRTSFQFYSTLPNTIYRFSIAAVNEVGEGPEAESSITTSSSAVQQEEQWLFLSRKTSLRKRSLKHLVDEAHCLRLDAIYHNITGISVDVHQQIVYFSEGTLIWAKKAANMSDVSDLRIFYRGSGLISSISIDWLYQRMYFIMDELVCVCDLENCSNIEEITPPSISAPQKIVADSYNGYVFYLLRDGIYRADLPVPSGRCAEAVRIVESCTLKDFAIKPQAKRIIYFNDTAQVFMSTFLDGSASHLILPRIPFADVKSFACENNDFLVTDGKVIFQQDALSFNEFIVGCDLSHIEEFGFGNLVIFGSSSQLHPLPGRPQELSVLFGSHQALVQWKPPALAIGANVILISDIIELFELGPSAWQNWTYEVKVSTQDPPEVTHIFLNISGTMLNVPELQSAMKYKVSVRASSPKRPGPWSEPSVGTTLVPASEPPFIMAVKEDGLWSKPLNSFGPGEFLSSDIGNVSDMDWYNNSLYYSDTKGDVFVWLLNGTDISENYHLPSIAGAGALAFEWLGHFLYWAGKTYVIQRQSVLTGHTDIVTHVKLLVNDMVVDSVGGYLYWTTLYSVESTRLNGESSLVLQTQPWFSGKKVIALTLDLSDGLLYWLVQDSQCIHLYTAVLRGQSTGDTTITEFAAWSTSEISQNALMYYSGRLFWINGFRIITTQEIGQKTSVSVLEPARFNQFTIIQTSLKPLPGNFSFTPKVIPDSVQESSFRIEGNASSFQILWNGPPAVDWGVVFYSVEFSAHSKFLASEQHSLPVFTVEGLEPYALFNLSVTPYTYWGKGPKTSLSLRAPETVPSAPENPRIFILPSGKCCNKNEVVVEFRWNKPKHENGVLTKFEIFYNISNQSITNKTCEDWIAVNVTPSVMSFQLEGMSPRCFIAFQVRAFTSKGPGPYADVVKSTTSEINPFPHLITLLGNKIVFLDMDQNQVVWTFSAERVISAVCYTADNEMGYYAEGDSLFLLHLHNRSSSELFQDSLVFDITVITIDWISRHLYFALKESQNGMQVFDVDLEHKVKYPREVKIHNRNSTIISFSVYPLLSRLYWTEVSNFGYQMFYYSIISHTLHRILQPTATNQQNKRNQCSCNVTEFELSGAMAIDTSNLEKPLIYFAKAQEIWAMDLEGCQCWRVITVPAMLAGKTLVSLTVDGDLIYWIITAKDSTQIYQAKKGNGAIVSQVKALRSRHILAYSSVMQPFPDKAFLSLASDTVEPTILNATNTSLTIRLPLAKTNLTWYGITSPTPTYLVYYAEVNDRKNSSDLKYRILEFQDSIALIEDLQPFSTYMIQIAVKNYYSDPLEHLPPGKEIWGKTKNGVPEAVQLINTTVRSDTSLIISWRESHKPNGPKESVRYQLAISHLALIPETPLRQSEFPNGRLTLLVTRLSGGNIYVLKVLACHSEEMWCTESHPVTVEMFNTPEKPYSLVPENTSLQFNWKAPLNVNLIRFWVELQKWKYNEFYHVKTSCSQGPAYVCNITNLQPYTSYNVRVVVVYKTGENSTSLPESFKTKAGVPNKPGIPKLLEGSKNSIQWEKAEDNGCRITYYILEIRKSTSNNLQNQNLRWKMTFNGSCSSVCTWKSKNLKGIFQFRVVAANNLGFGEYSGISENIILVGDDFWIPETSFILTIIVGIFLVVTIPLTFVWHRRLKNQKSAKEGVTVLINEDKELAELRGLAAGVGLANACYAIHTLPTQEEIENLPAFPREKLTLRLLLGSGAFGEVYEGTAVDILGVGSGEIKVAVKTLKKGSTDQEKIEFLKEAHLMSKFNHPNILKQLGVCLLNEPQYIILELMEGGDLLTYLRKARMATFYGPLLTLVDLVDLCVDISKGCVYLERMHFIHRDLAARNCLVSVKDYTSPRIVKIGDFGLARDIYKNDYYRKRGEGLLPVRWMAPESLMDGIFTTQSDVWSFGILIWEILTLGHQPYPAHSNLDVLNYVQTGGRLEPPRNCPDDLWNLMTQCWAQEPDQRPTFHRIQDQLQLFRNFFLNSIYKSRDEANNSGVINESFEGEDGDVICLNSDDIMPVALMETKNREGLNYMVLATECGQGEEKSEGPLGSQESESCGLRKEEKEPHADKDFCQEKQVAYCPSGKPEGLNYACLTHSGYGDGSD
Description: as §1

[10] = biological target: Rsk3(h) (Homo sapiens, UniProt Q15349); type: biochemical
Chain of Rsk3(h) (Q15349 whole entry): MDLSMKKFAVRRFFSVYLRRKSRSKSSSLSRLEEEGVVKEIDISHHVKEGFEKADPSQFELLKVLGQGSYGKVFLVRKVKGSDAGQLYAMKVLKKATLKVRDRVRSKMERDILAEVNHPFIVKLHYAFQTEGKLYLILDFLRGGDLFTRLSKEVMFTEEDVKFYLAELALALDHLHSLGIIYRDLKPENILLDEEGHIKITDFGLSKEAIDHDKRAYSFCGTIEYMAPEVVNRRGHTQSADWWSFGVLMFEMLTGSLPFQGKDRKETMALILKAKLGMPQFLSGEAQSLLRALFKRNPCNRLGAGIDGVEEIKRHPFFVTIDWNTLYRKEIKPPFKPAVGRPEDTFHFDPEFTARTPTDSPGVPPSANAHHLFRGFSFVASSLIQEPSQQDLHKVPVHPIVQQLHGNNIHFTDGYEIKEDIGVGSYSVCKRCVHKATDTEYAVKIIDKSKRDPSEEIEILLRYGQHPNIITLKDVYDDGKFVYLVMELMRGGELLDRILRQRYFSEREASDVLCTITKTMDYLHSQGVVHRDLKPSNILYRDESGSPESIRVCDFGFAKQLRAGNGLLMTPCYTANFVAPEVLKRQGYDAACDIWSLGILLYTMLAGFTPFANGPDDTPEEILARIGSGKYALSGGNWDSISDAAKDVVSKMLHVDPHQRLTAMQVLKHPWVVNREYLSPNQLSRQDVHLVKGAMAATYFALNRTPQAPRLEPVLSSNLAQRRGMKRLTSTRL
Description: as §1

[11] = biological target: SAPK2a(h) (Homo sapiens, UniProt Q16539); type: biochemical
Chain of SAPK2a(h) (Q16539 whole entry): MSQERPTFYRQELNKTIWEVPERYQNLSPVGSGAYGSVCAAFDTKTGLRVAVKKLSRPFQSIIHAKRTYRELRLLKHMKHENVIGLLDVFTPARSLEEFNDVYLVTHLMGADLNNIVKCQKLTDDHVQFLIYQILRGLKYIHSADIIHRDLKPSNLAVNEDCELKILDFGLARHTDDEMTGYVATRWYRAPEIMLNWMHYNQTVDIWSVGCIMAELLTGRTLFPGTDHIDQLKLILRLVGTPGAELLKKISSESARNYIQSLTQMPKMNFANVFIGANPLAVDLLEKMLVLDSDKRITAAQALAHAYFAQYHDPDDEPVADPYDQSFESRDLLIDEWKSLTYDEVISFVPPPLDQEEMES
Description: as §1

Activity at Protein Kinase Assays (% of control), AMPK(r) [1]	Activity at Protein Kinase Assays (% of control), CaMKII(r) [2]	Activity at Protein Kinase Assays (% of control), Abl(h) [3]	Activity at Protein Kinase Assays (% of control), Flt3(h) [4]	Activity at Protein Kinase Assays (% of control), MAPKAP-K2(h) [5]	Activity at Protein Kinase Assays (% of control), PKCε(h) [6]	Activity at Protein Kinase Assays (% of control), PKCζ(h) [7]	Activity at Protein Kinase Assays (% of control), PKCη(h) [8]	Activity at Protein Kinase Assays (% of control), Ros(h) [9]	Activity at Protein Kinase Assays (% of control), Rsk3(h) [10]	Activity at Protein Kinase Assays (% of control), SAPK2a(h) [11]	SMILES
105 % of control	109 % of control	107 % of control	77 % of control	108 % of control	93 % of control	99 % of control	102 % of control	117 % of control	5 % of control	92 % of control	O=C1NC(=O)C2=C1c1cn(c3ccccc13)CCCc1cc(nc(N3CCCC3)c1)CCCn1cc2c2ccccc21 [Cpd 6, 20-pyrrolidin-1-yl-4,14,19,26-tetraazaheptacyclo[24.6.1.1^7,14.1^18,22.0^2,6.0^8,13.0^27,32]pentatriaconta-1(33),2(6),7(35),8,10,12,18(34),19,21,27,29,31-dodecaene-3,5-dione]
99 % of control	98 % of control	108 % of control	85 % of control	95 % of control	97 % of control	116 % of control	97 % of control	105 % of control	25 % of control	93 % of control	O=C1NC(=O)C2=C1c1cn(c3ccccc13)CCCc1ccc(c(N3CCCC3)n1)CCCn1cc2c2ccccc21 [Cpd 7, 31-pyrrolidin-1-yl-5,15,25,30-tetraazaheptacyclo[27.2.2.1^5,12.1^18,25.0^6,11.0^13,17.0^19,24]pentatriaconta-1(31),6,8,10,12(35),13(17),18(34),19,21,23,29,32-dodecaene-14,16-dione]
101 % of control	92 % of control	105 % of control	86 % of control	98 % of control	72 % of control	98 % of control	85 % of control	79 % of control	33 % of control	108 % of control	CN(C)c1nc2ccc1CCCCn1cc(c3ccccc31)C1=C(C(=O)NC1=O)c1cn(c3ccccc13)CCC2 [Cpd 1, 31-(dimethylamino)-5,15,25,32-tetraazaheptacyclo[28.2.2.1^5,12.1^18,25.0^6,11.0^13,17.0^19,24]hexatriaconta-1(32),6,8,10,12(36),13(17),18(35),19,21,23,30,33-dodecaene-14,16-dione]
101 % of control	107 % of control	98 % of control	71 % of control	101 % of control	83 % of control	105 % of control	109 % of control	108 % of control	5 % of control	92 % of control	CN(C)c1cc2cc(n1)CCCn1cc(c3ccccc31)C1=C(C(=O)NC1=O)c1cn(c3ccccc13)CCC2 [Cpd 2, 20-(dimethylamino)-4,14,19,26-tetraazaheptacyclo[24.6.1.1^7,14.1^18,22.0^2,6.0^8,13.0^27,32]pentatriaconta-1(33),2(6),7(35),8,10,12,18(34),19,21,27,29,31-dodecaene-3,5-dione]
